Reference: patent US20130065936A1, “MODULATION OF BIOACTIVE EPOXY-FATTY ACID LEVELS BY PHOSPHODIESTERASE INHIBITORS” (THE REGENTS OF THE UNIVERSITY OF CALIFORNIA, priority 2010, published 2013)

Legend:
Sprague-Dawley rats [1] = test: Open field activity; type: in vivo, rat; details: 1 h following administration
Procedure: For the measurement of open field activity animals were placed in an acrylic chamber (40×40×20 cm length×width×height) divided into 100 cm^2 (10×10 cm) sections. The number of crossings were recorded when both hind paws crossed into a neighboring cell.

Sprague-Dawley rats [2] = test: Acute nociceptive responses in healthy rats, Hargreaves thermal withdrawal latency; type: in vivo, rat; details: Hargreaves; celecoxib 20, fluconazole 40, micanozole 40, finasteride 10, picrotoxin 0.25 mg/kg
sEH = target: T1, sEH (Homo sapiens, UniProt P34913); test: sEH inhibition as stated in the general description (earlier tests, '506 patent); type: biochemical
T1 sequence (P34913 1-555): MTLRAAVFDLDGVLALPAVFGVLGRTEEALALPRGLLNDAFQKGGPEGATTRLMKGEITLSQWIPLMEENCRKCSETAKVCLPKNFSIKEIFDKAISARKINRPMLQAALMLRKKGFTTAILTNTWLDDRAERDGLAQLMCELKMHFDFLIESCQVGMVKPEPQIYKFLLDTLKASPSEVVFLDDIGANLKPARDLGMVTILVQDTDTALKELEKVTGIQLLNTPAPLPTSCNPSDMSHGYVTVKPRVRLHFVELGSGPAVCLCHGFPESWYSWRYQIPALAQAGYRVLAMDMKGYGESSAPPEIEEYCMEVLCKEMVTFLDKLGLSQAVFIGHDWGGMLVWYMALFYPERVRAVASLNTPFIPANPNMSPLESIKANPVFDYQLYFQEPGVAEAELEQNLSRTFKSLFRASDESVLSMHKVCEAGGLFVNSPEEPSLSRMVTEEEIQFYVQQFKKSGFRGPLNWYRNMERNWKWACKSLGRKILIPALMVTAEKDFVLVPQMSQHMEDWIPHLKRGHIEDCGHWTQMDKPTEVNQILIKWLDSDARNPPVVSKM

| Compound | antagonism of / interaction with rolipram-produced increase in thermal withdrawal latency (Sprague-Dawley rats [2]) | further results |
| --- | --- | --- |
| CC(=O)N1CCC(NC(=O)Nc2ccc(OC(F)(F)F)cc2)CC1 [TPAU] |  | voluntary movement in an open-field chamber (motor depressant effect) (Sprague-Dawley rats [1]): indistinguishable from baseline activity |
| OC(Cn1cncn1)(Cn1cncn1)c1ccc(F)cc1F [fluconazole] | Noncompetitive antagonism |  |
| Clc1ccc(COC(Cn2ccnc2)c2ccc(Cl)cc2Cl)c(Cl)c1 (stereo not shown) [micanozole] | lack of antagonism |  |
| CCCCCCCCCCCCNC(=O)NC12CC3CC(CC(C3)C1)C2 [ADU, N-Adamantyl-N′-dodecyl urea] |  | activity as inhibitor of sEH (sEH): particularly high activity on sEH |
